Drawing on patent US8680139B2 (Progenra, priority 2009, dated 2014), this text covers EC50 for 35 compounds.

As a reminder, the EC50 is the midpoint of the concentration-response curve.

Where only a bound is given, the exact number is not on record here.

The target of the assay is T1, USP7 (Homo sapiens, UniProt Q93009).
T1 construct: full length human USP7 protein; made in house
T1 sequence (Q93009 whole entry): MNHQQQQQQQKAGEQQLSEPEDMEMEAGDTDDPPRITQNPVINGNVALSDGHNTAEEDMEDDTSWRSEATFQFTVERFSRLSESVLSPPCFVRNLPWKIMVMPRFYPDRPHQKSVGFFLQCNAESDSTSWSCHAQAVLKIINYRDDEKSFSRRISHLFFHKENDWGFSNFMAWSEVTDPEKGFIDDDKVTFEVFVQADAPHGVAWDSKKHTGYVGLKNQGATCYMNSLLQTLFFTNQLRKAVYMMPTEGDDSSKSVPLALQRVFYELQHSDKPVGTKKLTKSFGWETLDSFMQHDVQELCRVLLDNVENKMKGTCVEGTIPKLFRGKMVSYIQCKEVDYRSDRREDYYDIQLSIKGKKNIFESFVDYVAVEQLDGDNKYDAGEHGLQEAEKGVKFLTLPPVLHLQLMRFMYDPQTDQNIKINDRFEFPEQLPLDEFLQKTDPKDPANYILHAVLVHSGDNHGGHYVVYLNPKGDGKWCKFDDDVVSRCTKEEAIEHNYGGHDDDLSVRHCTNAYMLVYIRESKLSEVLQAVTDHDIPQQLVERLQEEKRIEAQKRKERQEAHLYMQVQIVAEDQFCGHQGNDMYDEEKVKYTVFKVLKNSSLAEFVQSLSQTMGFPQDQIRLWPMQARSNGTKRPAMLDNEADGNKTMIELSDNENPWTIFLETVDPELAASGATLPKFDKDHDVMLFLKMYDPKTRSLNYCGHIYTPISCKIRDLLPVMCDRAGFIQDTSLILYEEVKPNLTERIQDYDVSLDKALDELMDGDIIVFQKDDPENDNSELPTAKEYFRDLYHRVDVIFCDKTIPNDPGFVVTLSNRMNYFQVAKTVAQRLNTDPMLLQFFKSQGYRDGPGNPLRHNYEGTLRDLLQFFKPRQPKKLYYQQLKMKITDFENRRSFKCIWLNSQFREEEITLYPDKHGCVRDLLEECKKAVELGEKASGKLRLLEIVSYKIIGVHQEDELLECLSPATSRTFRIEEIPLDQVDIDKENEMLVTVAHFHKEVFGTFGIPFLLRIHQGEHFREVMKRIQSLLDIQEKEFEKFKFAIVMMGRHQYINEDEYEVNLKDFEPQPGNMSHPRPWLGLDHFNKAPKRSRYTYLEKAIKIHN
Description: USP7, Ub-PLA2 assay. Conditions: Ub-PLA2 / NBD C6-HPC fluorescence, 30 minute preincubation; read-out: EC50 for inhibition of USP7. Type of assay: biochemical. Here is the method: The purpose of this assay is to measure the inhibition of USP7 by various compounds of the invention synthesized according to the above-described methods. […] The vehicle control was 100% (v/v) DMSO. 1.6 μL aliquots of the diluted test compound and controls were dispensed into individual wells in a black walled 96 well plate. […] The data were normalized within a plate relative to the control wells using the equation % inhibition=(100−(((RFUcompound−RFUmean NEM) / (RFUmean DMSO−RFUmean NEM))×100)).
In the case of `CN1CCC(NC(=O)Nc2cc([N+](=O)[O-])c(Sc3c(Cl)cncc3Cl)s2)CC1` [Example 270, 1-(5-((3,5-dichloropyridin-4-yl)thio)-4-nitrothiophen-2-yl)-3-(1-methylpiperidin-4-yl)urea], the EC50 lay in the range of 1 to 10 µM.
For `O=C(NC1CCN(C2CC2)C1)c1cc([N+](=O)[O-])c(Sc2c(Cl)cncc2Cl)s1` (centres unmarked) [Example 198, N-(1-cyclopropylpyrrolidin-3-yl)-5-((3,5-dichloropyridin-4-yl)thio)-4-nitrothiophene-2-carboxamide], the EC50 is 1 to 10 µM.
Consider `CSCCCNC(=O)c1cc([N+](=O)[O-])c(Sc2c(Cl)cncc2Cl)s1` [Example 194, 5-((3,5-dichloropyridin-4-yl)thio)-N-(3-(methylthio)propyl)-4-nitrothiophene-2-carboxamide], for which the EC50 was at most 1 µM.
As for `O=C(NCC(=O)N1CCC(O)CC1)c1cc([N+](=O)[O-])c(Sc2c(Cl)cncc2Cl)s1` [Example 211, 5-((3,5-dichloropyridin-4-yl)thio)-N-(2-(4-hydroxypiperidin-1-yl)-2-oxoethyl)-4-nitrothiophene-2-carboxamide], the figure is 1 to 10 µM; as for `O=C(Nc1cc(-c2ccccc2)n[nH]1)c1cc([N+](=O)[O-])c(Sc2c(Cl)cncc2Cl)s1` [Example 71, 5-((3,5-dichloropyridin-4-yl)thio)-4-nitro-N-(3-phenyl-1H-pyrazol-5-yl)thiophene-2-carboxamide], 1 to 10 µM.
As for `O=C(NCCc1ccccc1)c1cc([N+](=O)[O-])c(Sc2c(Cl)cncc2Cl)s1` [Example 96, 5-((3,5-dichloropyridin-4-yl)thio)-4-nitro-N-phenethylthiophene-2-carboxamide], the figure is at most 1 µM.
As for `COc1cccc(CNC(=O)c2cc([N+](=O)[O-])c(Sc3c(Cl)cncc3Cl)s2)c1` [Example 99, 5-((3,5-dichloropyridin-4-yl)thio)-N-(3-methoxybenzyl)-4-nitrothiophene-2-carboxamide], the figure is at most 1 µM.
`CN(C)CCNC(=O)CNC(=O)c1cc([N+](=O)[O-])c(Sc2c(Cl)cncc2Cl)s1` [Example 217, 5-((3,5-dichloropyridin-4-yl)thio)-N-(2-((2-(dimethylamino)ethyl)amino)-2-oxoethyl)-4-nitrothiophene-2-carboxamide]: the concentration for a half-maximal effect (EC50) fell in the range of 1 to 10 µM.
On to `O=C(Nc1ccc(F)cc1C(F)(F)F)c1cc([N+](=O)[O-])c(Sc2c(Cl)cncc2Cl)s1` [Example 139, 5-((3,5-dichloropyridin-4-yl)thio)-N-(4-fluoro-2-(trifluoromethyl)phenyl)-4-nitrothiophene-2-carboxamide], for which the EC50 was at most 1 µM.
Consider `CC1(C)CCN(C(=O)c2cc([N+](=O)[O-])c(Sc3c(Cl)cncc3Cl)s2)CC1` [Example 80, (5-((3,5-dichloropyridin-4-yl)thio)-4-nitrothiophen-2-yl)(4,4-dimethylpiperidin-1-yl)methanone], for which the EC50 was 1 to 10 µM.
Then `O=C(NCCc1ccccc1F)c1cc([N+](=O)[O-])c(Sc2c(Cl)cncc2Cl)s1` [Example 111, 5-((3,5-dichloropyridin-4-yl)thio)-N-(2-fluorophenethyl)-4-nitrothiophene-2-carboxamide], with at most 1 µM.
For `O=C(Nc1cccc(F)c1)c1cc([N+](=O)[O-])c(Sc2c(Cl)cncc2Cl)s1` [Example 138, 5-((3,5-dichloropyridin-4-yl)thio)-N-(3-fluorophenyl)-4-nitrothiophene-2-carboxamide], the EC50 was at most 1 µM.
Then `COc1ccc(CNC(C)c2cc([N+](=O)[O-])c(Sc3ccc(Cl)cc3Cl)s2)cc1` (centres unmarked) [Example 30, 1-[5-(2,4-dichlorophenyl)sulfanyl-4-nitro-2-thienyl]-N-[(4-methoxyphenyl)methyl]ethanamine], with over 10 µM; and `CC(=O)c1cc([N+](=O)[O-])c(Sc2nccn2C)s1` [Example 15, 1-[5-(1-methylimidazol-2-yl)sulfanyl-4-nitro-2-thienyl]ethanone], with 1 to 10 µM.
Take `O=C(NC1CN2CCC1CC2)c1cc([N+](=O)[O-])c(Sc2c(Cl)cncc2Cl)s1` (centres unmarked) [Example 202, 5-((3,5-dichloropyridin-4-yl)thio)-4-nitro-N-(quinuclidin-3-yl)thiophene-2-carboxamide]: the EC50 is at most 1 µM.
As to `O=C(NCCN1CCOCC1)c1cc([N+](=O)[O-])c(Sc2c(Cl)cncc2Cl)s1` [Example 59, 5-((3,5-dichloropyridin-4-yl)thio)-N-(2-morpholinoethyl)-4-nitrothiophene-2-carboxamide], the EC50 is 1 to 10 µM.
As for `CSc1ccc(NC(=O)c2cc([N+](=O)[O-])c(Sc3c(Cl)cncc3Cl)s2)cc1` [Example 174, 5-((3,5-dichloropyridin-4-yl)thio)-N-(4-(methylthio)phenyl)-4-nitrothiophene-2-carboxamide], the figure is at most 1 µM; as for `COc1ccccc1CNC(=O)c1cc([N+](=O)[O-])c(Sc2c(Cl)cncc2Cl)s1` [Example 51, 5-((3,5-dichloropyridin-4-yl)thio)-N-(2-methoxybenzyl)-4-nitrothiophene-2-carboxamide], 1 to 10 µM; as for `CN1C2CCC1CC(NC(=O)c1cc([N+](=O)[O-])c(Sc3c(Cl)cncc3Cl)s1)C2` (centres unmarked) [Example 184, 5-((3,5-dichloropyridin-4-yl)thio)-N-(8-methyl-8-azabicyclo[3.2.1]octan-3-yl)-4-nitrothiophene-2-carboxamide], at most 1 µM.
`O=C(NCCc1cccnc1)c1cc([N+](=O)[O-])c(Sc2c(Cl)cncc2Cl)s1` [Example 108, 5-((3,5-dichloropyridin-4-yl)thio)-4-nitro-N-(2-(pyridin-3-yl)ethyl)thiophene-2-carboxamide]: the EC50 is at most 1 µM.
For `CCOc1cccc(CNC(=O)c2cc([N+](=O)[O-])c(Sc3c(Cl)cncc3Cl)s2)c1` [Example 149, 5-((3,5-dichloropyridin-4-yl)thio)-N-(3-ethoxybenzyl)-4-nitrothiophene-2-carboxamide], the EC50 was at most 1 µM.
For the compound `O=C(NC1CCNCC1)c1cc([N+](=O)[O-])c(Sc2c(Cl)cncc2Cl)s1` [Example 196, 5-((3,5-dichloropyridin-4-yl)thio)-4-nitro-N-(piperidin-4-yl)thiophene-2-carboxamide], the EC50 was at most 1 µM.
For `O=C(NCCCN1CCC(CO)CC1)c1cc([N+](=O)[O-])c(Sc2c(Cl)cncc2Cl)s1` [Example 227, 5-((3,5-dichloropyridin-4-yl)thio)-N-(3-(4-(hydroxymethyl)piperidin-1-yl)propyl)-4-nitrothiophene-2-carboxamide], the EC50 is at most 1 µM.
For `CC(=O)c1cc([N+](=O)[O-])c(Sc2cnc3ccccc3n2)s1` [Example 37, 1-(4-nitro-5-quinoxalin-2-ylsulfanyl-2-thienyl)ethanone], the EC50 is 1 to 10 µM.
`CCOC(=O)CNC(=O)c1cc([N+](=O)[O-])c(Sc2c(Cl)cncc2Cl)s1` [Example 209, Ethyl 2-(5-((3,5-dichloropyridin-4-yl)thio)-4-nitrothiophene-2-carboxamido)acetate]: the EC50 lay in the range of 1 to 10 µM.
`CN(C)C(=O)c1cc([N+](=O)[O-])c(Sc2c(Cl)cncc2Cl)s1` [Example 49, 5-[(3,5-dichloro-4-pyridyl)sulfanyl]-N,N-dimethyl-4-nitro-thiophene-2-carboxamide]: the EC50 was in the range of 1 to 10 µM.
As for `CC(=O)c1cc([N+](=O)[O-])c(Sc2ccc([N+](=O)[O-])cc2)s1` [Example 13, 1-[4-nitro-5-(4-nitrophenylsulfanyl)-2-thienyl]ethanone], the figure is 1 to 10 µM; as for `O=C(Nc1cccc(Br)c1)c1cc([N+](=O)[O-])c(Sc2c(Cl)cncc2Cl)s1` [Example 133, N-(3-bromophenyl)-5-((3,5-dichloropyridin-4-yl)thio)-4-nitrothiophene-2-carboxamide], at most 1 µM.
Take `O=C1COc2ccc(Sc3sc(C(=O)Nc4cc(C5CC5)n[nH]4)cc3[N+](=O)[O-])cc2N1` [Example 248, N-(3-cyclopropyl-1H-pyrazol-5-yl)-4-nitro-5-((3-oxo-3,4-dihydro-2H-benzo[b][1,4]oxazin-6-yl)thio)thiophene-2-carboxamide]: the EC50 lay in the range of 1 to 10 µM.
Regarding `COCCNC(=O)CNC(=O)c1cc([N+](=O)[O-])c(Sc2c(Cl)cncc2Cl)s1` [Example 214, 5-((3,5-dichloropyridin-4-yl)thio)-N-(2-((2-methoxyethyl)amino)-2-oxoethyl)-4-nitrothiophene-2-carboxamide], the EC50 lay within 1 to 10 µM.
Regarding `O=C(NCC(=O)N1CCC(F)CC1)c1cc([N+](=O)[O-])c(Sc2c(Cl)cncc2Cl)s1` [Example 216, 5-((3,5-dichloropyridin-4-yl)thio)-N-(2-(4-fluoropiperidin-1-yl)-2-oxoethyl)-4-nitrothiophene-2-carboxamide], the EC50 is 1 to 10 µM.
`O=C(NCCN1CCN(Cc2ccccc2)CC1)c1cc([N+](=O)[O-])c(Sc2c(Cl)cncc2Cl)s1` [Example 117, N-(2-(4-benzylpiperazin-1-yl)ethyl)-5-((3,5-dichloropyridin-4-yl)thio)-4-nitrothiophene-2-carboxamide]: the EC50 is at most 1 µM.
Consider `CC(=O)c1cc([N+](=O)[O-])c(Sc2cc(C(F)(F)F)cc(C(F)(F)F)c2)s1` [Example 40, 1-[5-[3,5-bis(trifluoromethyl)phenyl]sulfanyl-4-nitro-2-thienyl]ethanone], for which the EC50 was in the range of 1 to 10 µM.
Then `CC(=O)c1cc([N+](=O)[O-])c(Sc2ccc3ccccc3c2)s1` [Example 11, 1-[5-(2-Naphthylsulfanyl)-4-nitro-2-thienyl]ethanone], with over 10 µM; and `O=C(c1cccc([N+](=O)[O-])c1)c1cc([N+](=O)[O-])c(Sc2ccc(Cl)cc2Cl)s1` [Example 31, [5-(2,4-dichlorophenyl)sulfanyl-4-nitro-2-thienyl]-(3-nitrophenyl)methanone], with over 10 µM.
